The source of these data is patent US20120040389A1 (Institut National de la Sante et de la Recherche Medicale …, priority 2003, published 2012).

Each structure is given as a SMILES string.

In test [1] the test system is clone 10 cells. Nature of the test: Cell cycle distribution by propidium iodide, coupled with the Bax activation test. It is filed as cell-based, human. As to conditions: propidium iodide 0.4-0.8 mg/ml, 30 minutes at 4° C., FIG. 11. Here is the method: FIG. 11A-E represents the coupled measurement of Bax activation and the cell cycle. The clone 10 cells stably expressing the GFP-Bax fusion protein are treated with various drugs acting as pro-apoptotic agents and/or cytostatic agents. The measurement of Bax activation is carried out as described previously by evaluation of the retention of fluorescence after permeabilization with digitonin. In the permeabilization buffer, propidium iodide (0.4-0.8 mg/ml) was added and the cells were incubated for 30 minutes at 4° C. The distribution of the cells in the various phases of the cell cycle is read on the basis of their intensity of fluorescence in the red (PI). […] Moreover, it makes it possible to evaluate if Bax activation takes place in a preferential phase of the cell cycle.
The measurement of the cell cycle can be carried out in a traditional way by adding to the permeabilized cell suspension a sufficient concentration of propidium iodide (0.4-0.8 mg/ml). The cells are incubated for 30 minutes to allow time for PI to become intercalated in the genomic DNA, and then analyzed using flow cytometry by simultaneously measuring “green” fluorescence (FL1=the recombinant biosensor signal based on GFP or another fluorescent protein emitting in the green range) and “red” fluorescence (FL3=the intensity of PI corresponding to the chromatin content of each cell, which enables the cell cycle to be read).

In test [2] the test system is Bax protein. Nature of the test: Bax activation: retention of GFP-Bax fluorescence after digitonin permeabilization, flow cytometry. Format: cell-based, human. As to conditions: clone 10; coupled test FL1 (GFP) / FL3 (DNA); FIG. 11. The method, then:
FIG. 11A-E represents the coupled measurement of Bax activation and the cell cycle. The clone 10 cells stably expressing the GFP-Bax fusion protein are treated with various drugs acting as pro-apoptotic agents and/or cytostatic agents. The measurement of Bax activation is carried out as described previously by evaluation of the retention of fluorescence after permeabilization with digitonin. In the permeabilization buffer, propidium iodide (0.4-0.8 mg/ml) was added and the cells were incubated for 30 minutes at 4° C. The distribution of the cells in the various phases of the cell cycle is read on the basis of their intensity of fluorescence in the red (PI).
The model implemented uses a clone designated “clone 10”.
The test is then based on the observation, under the fluorescence microscope or by flow cytometry, of the cells in which Bax is not activated and thus is distributed uniformly in the cytosol and of the cells in which Bax has been activated following an induction of apoptosis. In the latter case, the fluorescent signal is aggregated around the mitochondria and the Bax protein is thus considered as “bound”.
The cells are then resuspended in an intracellular saline solution in the presence of 50 μM of digitonin and then analyzed by flow cytometry and the fluorescence of the GFP is measured in channel FL1.
In general terms: In flow cytometry, cells or beads pass a laser one at a time.

Test [3] has as its system caspase 3. Nature of the test: Caspase 3 activation in a xenografted clone 23 tumor in nude mice, confocal microscopy. The note with it: mouse with xenografted clone 23 tumor; 40 mg/kg/day for 4 days; FIG. 12c. Format: in vivo. An excerpt:
FIG. 12 represents the xenograft of lines expressing a fluorescent biosensor. a) Confocal microscopy image (10×) of a section of a solid tumor generated by a subcutaneous xenograft of clone 10 cells (stably expressing GFP-Bax) in nude mice. Marking of nuclei (Hoechst) and cells with activated Bax (GFP-Bax). On the right, the detail of a cell with GFP-Bax relocalized to the mitochondria (GFP-Bax) and corresponding nuclear marking (Hoechst). b) Confocal microscopy image (10×) of a section of a solid tumor generated by a subcutaneous xenograft of clone 23 cells (stably expressing the protein copGFP-DEVD-cb5TMD-RR) in nude mice. Marking of nuclei (Hoechst) and distribution of the biosensor (caspase 3 probe).
These lines (designated clone 10 and clone 23, respectively), injected subcutaneously in “nude” mice form solid fluorescent tumors after a few days.

Test [4] deals with caspase 2. Put plainly: Distribution of nuclear-anchored caspase 2 probe in HeLa cells. The note with it: transiently transfected, 3 hours, untreated cells show nuclear distribution, FIG. 10e. It is filed as cell-based, human. An excerpt:
Fusion proteins GFP-cb5TMRR and GFP-SNAP(80-136) were constructed which carry, in the linker connecting the fluorescent protein and the anchoring segment, the caspase 8 consensus sensing site (IETD) which is principal “initiating” pro-apoptotic caspase. In the same manner, a fusion protein GFP-H2B was constructed which contains, in the sequence linker, the caspase 2 consensus sensing sequence (VDVAD), which is a protease with nuclear localization. The sensing components thus used have as sequences SEQ ID No. 6 and 14 (for caspase 8), and SEQ ID No. 12 (for caspase 2). These proteins are cleavable and the quantification of the proteolytic activity can be carried out via cytometry as shown for caspase 3 (FIG. 10).

For test [5], the system named is caspase 3. Put plainly: Cleavage and redistribution of caspase 3 probes, confocal and fluorescence microscopy. Format: cell-based, human. Here is the method:
The quantification of cleavage and of the diffusion of the fluorescent signal in the cytosol is carried out by measuring the increase in the respectively green and red fluorescent signal in a region of the nucleus.
The quantification of the cleavage and of the diffusion of the fluorescent signal respectively from the nucleus to the cytosol for the protein H2B-DEVD-GFP and from the cytosol to the nucleus for the protein HcRed-DEVT-cb5 is carried out by measuring the increase in the fluorescent signal, respectively green in a cytosolic region of the cell and red in a region of the nucleus. e) Evaluation by flow cytometry of the functionality of the probe by quantification of the percentage of retention of fluorescence after permeabilization in a population of HeLa cells transfected transiently with the protein H2B-DEVD-GFP and its non-cleavable control.
The cells are cultivated on glass slides and transfected with the vector described previously; they are then mounted in a saline medium in an incubation chamber and observed under the fluorescence microscope. Before or during the observation, they are treated with the pro-apoptotic agent.

Turning to `CC[C@@]1(O)C(=O)OCc2c1cc1n(c2=O)Cc2cc3ccccc3nc2-1` [camptothecin], the “Effect on the cell cycle (distribution in phases G1, S, G2/M)” value (from here on “Effect on the cell cycle”) in test [1] is listed as “blockage in phase S”. For the same compound, the “Bax activation in relation to the phase of the cell cycle” value (“Bax activation in relation to the phase” for short) in test [2] was “Bax activation preferentially in phase Gl”.

`CN[C@H]1CCc2cc(OC)c(OC)c(OC)c2-c2ccc(OC)c(=O)cc21` [colcemid]: the “Effect on the cell cycle” value in test [1] is given as “accumulation in phase G2”.

As for `COc1cccc2c1C(=O)c1c(O)c3c(c(O)c1C2=O)C[C@@](O)(C(C)=O)C[C@@H]3O[C@H]1C[C@H](N)[C@H](O)[C@H](C)O1` [daunorubicin], the “Effect on the cell cycle” value in test [1] was “accumulation in phase G2”. Further, in test [2], the “Bax activation in relation to the phase” value is “Bax activation in phase S”.

For the compound `COc1cc([C@@H]2c3cc4c(cc3[C@@H](O[C@@H]3O[C@@H]5CO[C@@H](C)O[C@H]5[C@H](O)[C@H]3O)[C@H]3COC(=O)[C@H]23)OCO4)cc(OC)c1O` [etoposide], the “Caspase 3 activation in tumor cells (cytosolic distribution of fluorescence)” value in test [3] is given as “appearance of cells having activated caspase 3”.

Regarding `CN[C@@H]1C[C@H]2O[C@@](C)([C@@H]1OC)n1c3ccccc3c3c4c(c5c6ccccc6n2c5c31)C(=O)NC4` [staurosporine], in test [1], the “Effect on the cell cycle” value was “no effect on the cycle”. Moreover, the “Distribution of fluorescent protein GFP-IETD-H2B” value in test [4] was “cytosolic distribution”. The “Cleavage of probes GFP-DEVD-ANT and HcRed-DEVD-Cb5RR” value in test [5] (human HeLa cells, transiently co-transfected, confocal microscopy, FIG. 8e-f) is recorded as “Release of the fluorescent protein in the cytosol following its cleavage”. Besides, in test [5] (human HeLa cells, transiently transfected, untreated cells show nuclear distribution, FIG. 9c), the “Distribution of fluorescent protein H2B-DEVD-GFP” value is listed as “cytosolic distribution”. Moreover, in test [5] (human SH-SY5Y neuroblastoma cells, transiently transfected, confocal microscopy, FIG. 7c), the “Cleavage of probe GFP-DEVD-SNAP(80-136)” value is “Release of the fluorescent protein in the cytosol following its cleavage”. Further, the “Bax activation in relation to the phase” value in test [2] is reported as “induction of Bax activation in any phase of the cycle”.
